Measurements taken from article PMC6152127, “Facile Synthesis of Novel Coumarin Derivatives, Antimicrobial Analysis, Enzyme Assay, Docking Study, ADMET Prediction and Toxicity Study” (Molecules : A Journal of Synthetic Chemistry and Natural …, 2017).
≈ marks a conversion by molar mass, not a printed value.

Columns and labels:
[1] = tested on: Bacillus subtilis (NCIM-2063); test: In vitro antibacterial activity, MIC; type: cell-based; conditions: average of three readings; for MIC: Bacillus subtilis, NCIM2063
Procedure: (§1) The newly synthesized compounds 4a–o were screened for their in vitro antibacterial activity against the three different bacterial strains. Minimum inhibitory concentration (MIC) values for antibacterial activity were determined by standard agar method using Ampicillin as standard drug. Dimethyl sulfoxide (DMSO) was used as solvent control. […] Compound 4e bearing a 2,4-difluoro group on the phenyl ring was 48 µg/mL for E. coli, 50 µg/mL for B. subtilis and 52 µg/mL for S. aureus.
(§2) All the synthesized compounds were screened for their in vitro antifungal and antibacterial activity. The antibacterial activity was evaluated against three human pathogenic bacterial strains: Escherichia coli (NCIM-2256), Bacillus subtilis (NCIM-2063) and Staphylococcus aureus (NCIM-2901). The antifungal activity was evaluated against seven human pathogenic fungal strains: Candida albicans (NCIM-3471), Candida glabrata (NCYC-388), Fusarium oxysporum (NCIM-1332), Aspergillus fumigates (NCIM-902), Aspergillus flavus (NCIM-539), Aspergillus niger (NCIM-1196) and Cryptococcus neoformans (NCIM-576), which are often encountered clinically. Miconazole was used as standard drug. Minimum inhibitory concentration (MIC) values were determined as per CLSI guidelines. Dimethyl sulfoxide (DMSO) was used as solvent control.
(§3) All the synthesized compounds 4a–o were screened for their in vitro antibacterial activity. Minimum inhibitory concentration (MIC) values were determined using method recommended by National Committee for Clinical Laboratory Standards (NCCLS). In vitro antibacterial activities of the synthesized compounds 4a–o were tested in Nutrient Broth (NB) for bacteria by the two fold serial dilution method. Seeded broth (broth containing microbial spores) was prepared in NB from 24 h old bacterial cultures on nutrient agar (Hi-media) at 37± 1 °C. The bacterial suspension was adjusted with sterile saline to a concentration of 1× 10^−4–10^−5 C.F.U. The synthesized compounds and standard drug Ampicillin were prepared by two fold serial dilutions to obtain the required concentrations of 400, 200, 100, 50, 25, 12.5, 6.25 and 3.13 μg/mL. The tubes were incubated in BOD incubators at 37± 1 °C for bacteria. The MICs were recorded by visual observations after 24 h (for bacteria) of incubation.

[2] = tested on: Escherichia coli (NCIM-2256); test: In vitro antibacterial activity, MIC; type: cell-based; conditions: average of three readings; for MIC: Escherichia coli, NCIM2256
Procedure: as §1, §2, §3

[3] = tested on: Staphylococcus aureus (NCIM-2901); test: In vitro antibacterial activity, MIC; type: cell-based; conditions: average of three readings; for MIC: Staphylococcus aureus, NCIM2901
Procedure: as §1, §2, §3

[4] = tested on: Aspergillus flavus (NCIM-539); test: In vitro antifungal activity, MIC, agar method (CLSI); type: cell-based; conditions: NCIM539, average of three readings
Procedure: (§4) The newly synthesized 3-((dicyclohexylamino)(substituted phenyl/heteryl)methyl)-4-hydroxy-2H-chromen-2-one derivatives 4a–o were screened for their in vitro antifungal activity against different yeast and filamentous fungal pathogens. […] Dimethyl sulfoxide (DMSO) was used as solvent control.
as §2, with “Miconazole was used as standard drug.” left out
(§5) Antifungal activity was determined as per CLSI (formerly, NCCLS) guidelines. […] The medium yeast nitrogen base was dissolved in phosphate buffer pH 7 and it was autoclaved at 110 °C for 10 min. With each set a growth control without the antifungal agent and solvent control DMSO were included. The fungal strains were freshly sub cultured on to Sabouraud dextrose agar (SDA) and incubated at 25 °C for 72 h. The fungal cells were suspended in sterile distilled water and diluted to get 10^5 cells/mL. Ten μL of the standardized suspension was inoculated onto the control plates and the media incorporated with the antifungal agents. The inoculated plates were incubated at 25 °C for 48 h. The readings were taken at the end of 48 h and 72 h. The MIC was the lowest concentration of drug preventing growth of macroscopically visible colonies on drug containing plates when there was visible growth on the drug free control plates.

[5] = tested on: Aspergillus fumigates (NCIM-902); test: as above; type: cell-based; conditions: NCIM902, average of three readings
Procedure: as §4
as §2, with “Miconazole was used as standard drug.” left out
as §5

[6] = tested on: Aspergillus niger (NCIM-1196); test: as above; type: cell-based; conditions: NCIM1196, average of three readings
Procedure: as §4
as §2, with “Miconazole was used as standard drug.” left out
as §5

[7] = tested on: Candida albicans (NCIM-3471); test: as above; type: cell-based; conditions: NCIM3471, average of three readings
Procedure: as §4
as §2, with “Miconazole was used as standard drug.” left out
as §5

[8] = tested on: Candida glabrata (NCYC-388); test: as above; type: cell-based; conditions: Nakaseomyces glabratus; average of three readings
Procedure: as §4
as §2, with “Miconazole was used as standard drug.” left out
as §5

[9] = tested on: Cryptococcus neoformans (NCIM-576); test: as above; type: cell-based; conditions: NCIM576, average of three readings
Procedure: as §4
as §2, with “Miconazole was used as standard drug.” left out
as §5

[10] = tested on: Fusarium oxysporum (NCIM-1332); test: as above; type: cell-based; conditions: NCIM1332, average of three readings
Procedure: as §4
as §2, with “Miconazole was used as standard drug.” left out
as §5

MIC [1] [µg/mL] | MIC [2] [µg/mL] | MIC [3] [µg/mL] | MIC [4] [µg/mL] | MIC [5] [µg/mL] | MIC [6] [µg/mL] | MIC [7] [µg/mL] | MIC [8] [µg/mL] | MIC [9] [µg/mL] | MIC [10] [µg/mL] | melting point [°C] | MIC Bacillus subtilis [1] [µg/mL] | MIC Escherichia coli [2] [µg/mL] | MIC Staphylococcus aureus [3] [µg/mL] | Structure (SMILES)
50 (≈ 143 µM) | 50 (≈ 143 µM) | 50 (≈ 143 µM) |  |  |  |  |  |  |  |  |  |  |  | CC1(C)S[C@@H]2[C@H](NC(=O)[C@H](N)c3ccccc3)C(=O)N2[C@H]1C(=O)O [Ampicillin, reference compound]
68 (≈ 158 µM) | 70 (≈ 162 µM) | 65 (≈ 151 µM) | 38 (≈ 88 µM) | 84 (≈ 195 µM) | 43 (≈ 99.6 µM) | 66 (≈ 153 µM) | 58 (≈ 134 µM) | 54 (≈ 125 µM) | 55 (≈ 127 µM) | 112 to 114 |  |  |  | O=c1oc2ccccc2c(O)c1C(c1ccccc1)N(C1CCCCC1)C1CCCCC1 (stereo not drawn) [Compound 4a, 3-((Dicyclohexylamino)(phenyl)methyl)-4-hydroxy-2H-chromen-2-one]
50 (≈ 107 µM) | 52 (≈ 112 µM) | 54 (≈ 116 µM) | 14 (≈ 30 µM) | 30 (≈ 64.4 µM) | 15 (≈ 32.2 µM) | 30 (≈ 64.4 µM) | 32 (≈ 68.7 µM) | 15 (≈ 32.2 µM) | 34 (≈ 73 µM) | 120 to 122 |  |  |  | O=c1oc2ccccc2c(O)c1C(c1ccc(Cl)cc1)N(C1CCCCC1)C1CCCCC1 (stereo not drawn) [Compound 4b, 3-((4-Chlorophenyl)(dicyclohexylamino)methyl)-4-hydroxy-2H-chromen-2-one]
48 (≈ 95.9 µM) | 50 (≈ 99.9 µM) | 50 (≈ 99.9 µM) | 15 (≈ 30 µM) | 28 (≈ 55.9 µM) | 18 (≈ 36 µM) | 30 (≈ 59.9 µM) | 28 (≈ 55.9 µM) | 14 (≈ 28 µM) | 35 (≈ 69.9 µM) | 126 to 128 | 48 (≈ 95.9 µM) | 50 (≈ 99.9 µM) | 50 (≈ 99.9 µM) | O=c1oc2ccccc2c(O)c1C(c1c(Cl)cccc1Cl)N(C1CCCCC1)C1CCCCC1 (stereo not drawn) [Compound 4c, 3-((2,6-Dichlorophenyl)(dicyclohexylamino)methyl)-4-hydroxy-2H-chromen-2-one]
49 (≈ 109 µM) | 50 (≈ 111 µM) | 50 (≈ 111 µM) | 15 (≈ 33.4 µM) | 28 (≈ 62.3 µM) | 20 (≈ 44.5 µM) | 28 (≈ 62.3 µM) | 30 (≈ 66.7 µM) | 18 (≈ 40 µM) | 30 (≈ 66.7 µM) | 122 to 124 |  |  |  | O=c1oc2ccccc2c(O)c1C(c1ccc(F)cc1)N(C1CCCCC1)C1CCCCC1 (stereo not drawn) [Compound 4d, 3-((Dicyclohexylamino)(4-fluorophenyl)methyl)-4-hydroxy-2H-chromen-2-one]
58 (≈ 126 µM) | 64 (≈ 139 µM) | 55 (≈ 119 µM) | 20 (≈ 43.3 µM) | 44 (≈ 95.3 µM) | 22 (≈ 47.7 µM) | 43 (≈ 93.2 µM) | 57 (≈ 123 µM) | 20 (≈ 43.3 µM) | 39 (≈ 84.5 µM) | 133 to 135 |  |  |  | COc1ccc(C(c2c(O)c3ccccc3oc2=O)N(C2CCCCC2)C2CCCCC2)cc1 (stereo not drawn) [Compound 4f, 3-((Dicyclohexylamino)(4-methoxyphenyl)methyl)-4-hydroxy-2H-chromen-2-one]
60 (≈ 122 µM) | 62 (≈ 126 µM) | 62 (≈ 126 µM) | 24 (≈ 48.8 µM) | 52 (≈ 106 µM) | 20 (≈ 40.7 µM) | 50 (≈ 102 µM) | 57 (≈ 116 µM) | 26 (≈ 52.9 µM) | 35 (≈ 71.2 µM) | 138 to 140 |  |  |  | COc1ccc(C(c2c(O)c3ccccc3oc2=O)N(C2CCCCC2)C2CCCCC2)cc1OC (stereo not drawn) [Compound 4g, 3-((Dicyclohexylamino)(3,4-dimethoxyphenyl)methyl)-4-hydroxy-2H-chromen-2-one]
